According to PubChem BioAssay AID602296 (Broad Institute, 2012):
Inconclusive results are not listed. Calls of active or inactive are those of the source.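 How the source made its calls: active means fitted activation curve crossing 40% at a concentration no higher than the sample's top valid tested dose; inconclusive means flat fitted curve at 30% to 70% activation, or poor curve fit; inactive means signal decrease, flat curve within 30%, or the rest.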

Test system: NIH3T3-HGL HSF-1 response element luciferase, 48 h
Experiment: sustained heat shock response element induction – cell-based, mouse, luciferase, cherry-pick, dose, confirmation (AID 602296);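 further: test compounds applied by themselves with no MG132 co-treatment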

| SMILES | AC40 |
| --- | --- |
| COC(=O)[C@@H](Cc1c[nH]c2ccccc12)NC(=O)c1ccc2c(c1)OCO2 | 3.28 µM |
| O=C(Nc1ccc(Br)cn1)c1ccc([N+](=O)[O-])o1 | > 26 µM (inactive) |
| Cc1ccc(CC2SC(N=C(N)N)=NC2=O)cc1 (stereo not drawn) | > 26 µM (inactive) |
| COc1ccc(OC)c(-n2c(=O)c3ccccc3c3ccccc3c2=O)c1 | 12.4 µM |
| COc1cccc(CNc2ccc(Br)cn2)c1O | 12.2 µM |
| O=[N+]([O-])c1ccc(Sc2ccccc2)nc1 | > 26 µM (inactive) |
| CC1(C)CC(=O)C=C(NC2=CC3OC(c4ccccc4)OCC3OC2=O)C1 (stereo not drawn) | 13.2 µM |
| O=C(N/N=C/c1ccncc1)c1cc2ccccc2cc1O | 25.2 µM |
| O=C(c1ccc[nH]c1=S)N1CCN(S(=O)(=O)c2ccc(Br)cc2Cl)CC1 | > 26 µM (inactive) |
| CCn1c(SCC(=O)c2ccc(Cl)cc2)nnc1-c1ccoc1C | 11.1 µM |
| O=C(O)c1c(Cl)c(Cl)c(Cl)c(Cl)c1C(=O)N1CCCC1 | > 26 µM (inactive) |
| COc1ccc(C2(C)NC(=O)N(CC3CCCCC3)C2=O)cc1 (stereo not drawn) | > 26 µM (inactive) |
| Cc1ccc(CSc2nc3ccccc3c(=O)n2CCCC(=O)NCc2ccco2)cc1 | > 26 µM (inactive) |
| O=C(C1CCC(CNS(=O)(=O)c2cccc3nsnc23)CC1)N1CCN(c2ccccn2)CC1 (stereo not drawn) | > 26 µM (inactive) |
| C/C(Cl)=C/Cc1c(C)[nH]c2ccc(C)cc2c1=O | 11.2 µM |
| CCOc1cc(N2CCOCC2)c(OCC)cc1NC(=O)Cc1cccc2ccccc12 | > 26 µM (inactive) |
| Cc1occc1C(=O)NNS(=O)(=O)c1ccc([N+](=O)[O-])cc1 | > 26 µM (inactive) |
| O=C(Cc1cccs1)NCc1ccccc1Br | 1.77 µM |
| C=CCn1c(SCC(=O)Nc2cc(NC(C)=O)ccc2OC)nnc1-c1cccnc1 | > 26 µM (inactive) |
| COC1(OC)C(/C=C/c2ccc(Cl)cc2)C(C#N)(C#N)C1(OC)OC (stereo not drawn) | 16.9 µM |
| Oc1cccnc1Sc1cccc(C(F)(F)F)c1 | > 26 µM (inactive) |
| Cc1ccc(C(=O)NNC(=O)c2ccccc2-n2cccc2)cc1 | > 26 µM (inactive) |

| SMILES | AC40 |
| --- | --- |
| CC(=NCc1ccco1)C1=C(O)c2ccccc2C1=O | 16.6 µM |
| Cn1c(CCCOc2ccc(Cl)cc2Cl)nnc1SCC(=O)Nc1cccc(F)c1 | 20.2 µM |
| CC1(C)CC(=O)C(C2C3=C(CC(C)(C)CC3=O)OC3=C2C(=O)CC(C)(C)C3)=C(O)C1 | > 26 µM (inactive) |
| Cc1ccc(CNc2c(C=O)c(=O)[nH]c3ccccc23)cc1 | > 26 µM (inactive) |
| ON=C1c2ccccc2-c2ccccc21 | 15.8 µM |
| O=C(O)CC1=C(Nc2ccccc2)C(=O)N(c2ccccc2)C1c1ccc(Cl)cc1 (stereo not drawn) | 5.67 µM |
| CCC1(C)N=C(N)Nc2nc3cc(C)c(C)cc3n21 (stereo not drawn) | 24.5 µM |
| O=C(NC(=S)Nc1ccccc1C(F)(F)F)c1ccccc1F | 19.3 µM |
| O=C1CCCN2N=C(SCC(=O)Nc3ccc(Br)cc3)SC2=N1 | > 26 µM (inactive) |
| COc1ccc(NS(=O)(=O)c2cc(NC(=O)c3cnccn3)ccc2N2CCCC2)cc1 | > 26 µM (inactive) |
| CCOCCCNC(=S)Nc1ccc2nc(N3CCOCC3)cc(C)c2c1 | > 26 µM (inactive) |
| COCCCNCCOc1ccc(C)cc1[N+](=O)[O-] | > 26 µM (inactive) |
| O=C1Nc2ccccc2/C1=C/c1cnc[nH]1 | > 26 µM (inactive) |
| Cc1ccc(NC(=O)N2CCCC2C(=O)Nc2c(C)cc(C)cc2C)cc1 (stereo not drawn) | > 26 µM (inactive) |
| C=CCN1C(=O)C(Cc2ccc(OCC)cc2)SC1=Nc1ccc(C(=O)O)cc1 (stereo not drawn) | > 26 µM (inactive) |
| FC(F)(F)c1cccc(NC(=S)NCc2ccccn2)c1 | 7.35 µM |
| CN(C)C(=O)c1ccc(=O)n(Cc2ccc(Cl)cc2Cl)c1 | > 26 µM (inactive) |
| Cn1c2ccc(F)cc2c2ncn(CCN3CCOCC3)c(=O)c21 | > 26 µM (inactive) |
| CC1(c2cccs2)CC(c2cccs2)=C(C#N)C(=O)N1 (stereo not drawn) | > 26 µM (inactive) |
| COc1cc2c(cc1OC)C(CCc1ccccc1)=NCC2 | > 26 µM (inactive) |
| O=[N+]([O-])c1ccc(-c2csc(Nc3ccccc3)[n+]2Cc2ccccc2)cc1 | 10.9 µM |
| O=C(CC(c1ccco1)S(=O)(=O)c1ccccc1)c1ccc(F)cc1 (stereo not drawn) | > 26 µM (inactive) |

| SMILES | AC40 |
| --- | --- |
| CN(Cc1nnc(-c2ccc(F)cc2)o1)c1ccccc1 | 9.33 µM |
| COc1ccc(S(=O)(=O)N2CCC(C(=O)NCc3cccnc3)CC2)cc1C | > 26 µM (inactive) |
| NC(=O)Cc1ccc2c(c1)[nH]c1ccccc12 | > 26 µM (inactive) |
| Cc1ccc2oc(C(=O)N3CCC(O)(c4cccc(C(F)(F)F)c4)CC3)c(C)c2c1 | 9.28 µM |
| CCOC(=O)C(=O)/C(C#N)=C/Nc1ccccc1 | > 26 µM (inactive) |
| O=C(O)CN1C(=O)/C(=C\c2cc(Br)ccc2OCc2ccc(F)cc2)SC1=S | > 26 µM (inactive) |
| COc1ccc(/C=C(\NC(=O)c2ccccc2)C(=O)N/N=C/c2sccc2C)cc1 | > 26 µM (inactive) |
| Cc1ccc(C)c(CN2C(=O)COc3ccccc32)c1 | > 26 µM (inactive) |
| CCCCN(CCCNC(=O)C1CCN(S(=O)(=O)CC)CC1)c1ccccc1 | 10.4 µM |
| Cc1cccc(CN(C(=S)Nc2c(C)cccc2C)c2cccnc2)c1 | 24.7 µM |
| CN1C(=O)C2C(c3ccc(N(C)C)cc3)=NN(Cc3ccccc3)C2C1=O (stereo not drawn) | > 26 µM (inactive) |
| Cc1cc(C)c2cc(C(=O)N(C)C3CCN(C)CC3)[nH]c2c1 | > 26 µM (inactive) |
| COc1ccc2cc(/C=C/C(=O)N3CCN(CC(=O)N4CCCCCC4)CC3)ccc2c1 | 12.6 µM |
| CN1CCC(=NNc2ccc(S(=O)(=O)N3CCOCC3)cc2[N+](=O)[O-])CC1 | > 26 µM (inactive) |
| COc1cccc(N=CC2=C(O)CC(C)(C)CC2=O)c1 | > 26 µM (inactive) |
| Cc1c(Cl)ccc2c1NC(=O)C21NC(CCC(N)=O)[C@H]2C(=O)N(c3ccc(Cl)cc3)C(=O)[C@H]21 (stereo partly drawn) | > 12 µM (inactive) |
| O=C(CN1C(=O)NC2(CCCC2)C1=O)NCCN1C(=O)S/C(=C\c2ccccc2F)C1=O | > 26 µM (inactive) |
| CCOC(=O)c1c(C)c(C(=O)Nc2ccc3c(c2)OCO3)c(C)n1C | 24.1 µM |
| [O-]/[N+](=C\c1ccc(OC(F)F)cc1)c1ccccc1 | > 26 µM (inactive) |
| CN(Cc1ccccc1)C(=O)c1cc(-c2ccc(Br)cc2)on1 | 2.21 µM |
| COc1ccc(C(=O)NCC(=O)OCC(=O)c2ccc3c(c2)NC(=O)CO3)cc1 | > 26 µM (inactive) |
| CC1=C(C(=O)N2CCOCC2)C(c2c(C)cc(C)cc2C)NC(=S)N1 (stereo not drawn) | > 26 µM (inactive) |

| SMILES | AC40 |
| --- | --- |
| COc1ccc(N=C2NC(=O)/C(=C\C=C\c3ccco3)S2)cc1 | 12.1 µM |
| COc1cc(/C=N/NC(=S)NC2CC3C=CC2C3)cc(OC)c1OC (stereo not drawn) | > 26 µM (inactive) |
| Nc1ccc(Sc2cnn(-c3ccccc3)c(=O)c2Cl)cc1 | 8.39 µM |
| COC(=O)c1nnn(CC(=O)NC(=O)Nc2ccc(F)cc2)c1C(=O)OC | > 26 µM (inactive) |
| Cc1ccc(SCCCCN2CCOCC2)cc1 | 23.9 µM |
| CC(C)NC(=O)CN(C(=O)CCC(=O)Nc1nccs1)c1ccc2c(c1)OCO2 | > 26 µM (inactive) |
| Cc1ccccc1OCCCC(=O)Nc1ccccc1C(F)(F)F | > 26 µM (inactive) |
| Cc1ccc(N2Cc3ccccc3OC(C)C2=O)cc1 (stereo not drawn) | > 26 µM (inactive) |
| O=C(O)CSc1nnnn1-c1ccc2c(c1)OCCO2 | > 26 µM (inactive) |
| S=C(Nc1ccccc1)Nc1ccc(Cl)cn1 | 21 µM |
| C/C(=C\C(=O)Nc1cscc1C)C(=O)O | > 26 µM (inactive) |
| CCc1ccc(CN2C(=O)c3ccccc3C2C(=O)NCC2CCCO2)cc1 (stereo not drawn) | > 26 µM (inactive) |
| Cc1ccc2cccnc2c1NC(=S)NC(=O)c1ccccc1 | > 26 µM (inactive) |
| N#Cc1ccc(Cl)cc1NC(=O)CNCc1cccs1 | > 26 µM (inactive) |
| Cc1ccc(-c2nc3ncccn3c2Nc2ccccc2C)o1 | > 26 µM (inactive) |
| CCc1[nH]nc2c1C1(CCN(C(=O)OCc3ccccc3)CC1)C(C#N)=C(N)O2 | > 26 µM (inactive) |
| O=Nc1c(-c2ccccc2)[nH]n(-c2ccccc2)c1=O | 20.7 µM |
| C=CC[n+]1c(-c2ccc(OC)cc2)csc1NNC(=O)Nc1ccccc1 | > 12 µM (inactive) |
| CCN(CC(=O)Nc1ccc(NC(C)=O)cc1)Cc1c(O)ccc2cc(Br)ccc12 | 25.2 µM |
| O=c1[nH]c2ccccc2n1CCC1CCCCC1 | 5.36 µM |
| CC(=O)c1cccc(N(CC(=O)Nc2ccc(F)cc2F)S(C)(=O)=O)c1 | 5.46 µM |
| Cc1cc(C)cc(Oc2ccccc2/C=C\C(=O)O)c1 | > 26 µM (inactive) |

| SMILES | AC40 |
| --- | --- |
| CSc1ccc(/C=N\Nc2nncn2N)cc1 | > 26 µM (inactive) |
| COc1cccc(Sc2ccccc2/C=N/NC(N)=O)c1 | > 26 µM (inactive) |
| CCCC12CN3CC(C)(CN(C1)C3c1ccc3c(c1)OCO3)C2=O (stereo not drawn) | > 26 µM (inactive) |
| O=C(NCCN1CCN(C(=O)c2ccc(Br)cc2)CC1)c1ccc(Br)cc1 | > 26 µM (inactive) |
| COc1cc(CC(=O)N(c2ccccc2)c2nc(C)cs2)cc(OC)c1OC | > 26 µM (inactive) |
| O=C1C2CC=CCC2C(=O)N1c1ccc(NCCc2ccccc2)c([N+](=O)[O-])c1 (stereo not drawn) | 3.31 µM |
| CCOC(=O)Nc1ccc(C(=O)Oc2ccccc2)c(O)c1 | 14.2 µM |
| Cc1ccccc1-n1nnc2c(=O)oc3ccccc3c21 | > 26 µM (inactive) |
| N=c1sccn1CC(=O)Nc1cc(Cl)ccc1Oc1ccccc1 | > 26 µM (inactive) |
| Cc1nonc1OCCNCCNc1ccc([N+](=O)[O-])cc1Cl | > 26 µM (inactive) |
| O=C1CC(N2C(=O)/C(=C/C=C/c3ccccc3)SC2=S)C(=O)N1c1ccccc1 (stereo not drawn) | > 26 µM (inactive) |
| CC(OC(=O)/C=C/c1ccc2ccccc2n1)C(=O)NCc1ccccc1 (stereo not drawn) | 25.9 µM |
| CCCN1C(=O)c2ccccc2NC1c1ccc(Cl)c(Cl)c1 (stereo not drawn) | > 26 µM (inactive) |
| CCOC(=O)Cn1nnc(-c2cccc(OC)c2)n1 | 12.8 µM |
| Cc1onc(-c2ccccc2)c1C(=O)OCc1nnc(-c2ccccc2)o1 | > 26 µM (inactive) |
| Cc1ccc(N2C(=O)SC(N(CC(=O)O)c3ccc(C)cc3)C2=O)cc1 (stereo not drawn) | 9.53 µM |
| CN(NC1OC(=O)c2ccccc21)c1ncc(Cl)cc1C(F)(F)F (stereo not drawn) | > 26 µM (inactive) |
| CCCCc1cc(O)c(CCCC)c(O)c1 | 4.58 µM |
| Nc1nnc(SCc2c(F)cccc2Cl)s1 | 14.4 µM |
| O=C(N/N=C/CCc1ccccc1)c1ccccc1 | 15.5 µM |
